Test results reported in patent publication US20240317721A1, “PYRAZOLYL DERIVATIVES AS INHIBITORS OF THE KRAS MUTANT PROTEIN” (NOVARTIS AG, priority 2021, published 2024).

Target: KRasG12C (M1-K169, biotinylated on the N-terminus) (Homo sapiens (Human), UniProt P01116, G12C)
Test: Covalent competition assay: scintillation proximity assay (SPA) quantifying covalent modification of KRASG12C
Format: binding
Settings: competition with radiolabeled covalent probe (Compound B/Compound A), 2 hours incubation, 10 nM KRasG12C
How it was run: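 Test compounds compete with a radiolabeled covalent probe for modification of N-terminally biotinylated KRasG12C(M1-K169):GDP, final 10 nM protein, 25 nM radio-ligand, 475 nM unlabelled ligand, 2 h with agitation in 20 mM Tris-HCl pH 7.5, 150 mM NaCl, 0.1 mM MgCl2, 0.01% Tween-20.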

| SMILES | IC50 [nM] |
| --- | --- |
| C=CC(=O)N1CC2(CC(n3nc(N4CCn5ccnc5C4)c(-c4c(Cl)c(C)cc5[nH]ncc45)c3C)C2)C1 (single isomer, unassigned) [Example 19a, 1-(6-(4-(5-chloro-6-methyl-1H-indazol-4-yl)-3-(5,6-dihydroimidazo[1,2-a]pyrazin-7(8H)-yl)-5-methyl-1H-pyrazol-1-yl)-2-azaspiro[3.3]heptan-2-yl)prop-2-en-1-one] | 894 |
| C=CC(=O)N1CC2(CC(n3nc(N4CC[C@H](N(C)C(C)=O)CC4(C)C)c(-c4c(Cl)c(C)cc5[nH]ncc45)c3C)C2)C1 (single isomer, unassigned) [Example 70a] | 287 |
| C=CC(=O)N1CC2(CC(n3nc(N4CCN(C[C@@H]5COCCO5)C[C@]4(C)CC)c(-c4c(Cl)cnc5[nH]ncc45)c3C)C2)C1 (single isomer, unassigned) [Example 81a] | > 5000 |
| C=CC(=O)N1CC2(CC(n3nc(N4CCC(N5C[C@H](OC)[C@H](OC)C5)CC4(C)C)c(-c4c(Cl)c(C)cc5[nH]ncc45)c3C)C2)C1 (single isomer, unassigned) [Example 102b] | 23 |
| C=CC(=O)N1CC2(CC(n3nc(N4CCN(C5CCOCC5)CC4(C)C)c(-c4c(Cl)c(Cl)cc5[nH]ncc45)c3C)C2)C1 (single isomer, unassigned) [Example 140b, 1-(6-(4-(5,6-dichloro-1H-indazol-4-yl)-3-(2,2-dimethyl-4-(tetrahydro-2H-pyran-4-yl)piperazin-1-yl)-5-methyl-1H-pyrazol-1-yl)-2-azaspiro[3.3]heptan-2-yl)prop-2-en-1-one] | 18 |
| C=CC(=O)N1CC2(CC(n3nc(N4CCN(CC(C)(C)O)CC45CCC5)c(-c4c(Cl)c(C)cc5[nH]nc(N)c45)c3C)C2)C1 (single isomer, unassigned) [Example 117a, 1-(6-(4-(3-amino-5-chloro-6-methyl-1H-indazol-4-yl)-3-(8-(2-hydroxy-2-methylpropyl)-5,8-diazaspiro[3.5]nonan-5-yl)-5-methyl-1H-pyrazol-1-yl)-2-azaspiro[3.3]heptan-2-yl)prop-2-en-1-one] | 9 |
| C=CC(=O)N1CC2(CCC(n3nc(N4CCN(C(C)=O)CC4)c(-c4c(Cl)ccc5[nH]ncc45)c3C)C2)C1 (single isomer, unassigned) [Example 53c, 1-(6-(3-(4-acetylpiperazin-1-yl)-4-(5-chloro-1H-indazol-4-yl)-5-methyl-1H-pyrazol-1-yl)-2-azaspiro[3.4]octan-2-yl)prop-2-en-1-one] | > 50000 |
| [2H]C1([2H])OC([2H])([2H])C([2H])([2H])N(C[C@@H]2CCN(c3nn(C4CC5(C4)CN(C(=O)C=C)C5)c(C)c3-c3c(Cl)c(Cl)cc4[nH]ncc34)C(C)(C)C2)C1([2H])[2H] (single isomer, unassigned) [Example 283a] | 3000 |
| C=CC(=O)N1CC2(CC(n3nc(N4CCN(C(COC)COC)C[C@]4(C)CC)c(-c4c(Cl)c(C)cc5[nH]ncc45)c3C)C2)C1 (single isomer, unassigned) [Example 187b] | 5 |
| C=CC(=O)N1CC2(CC(n3nc(N4CCC5C(=O)N(C)CC5C4)c(-c4c(Cl)c(C)cc5[nH]ncc45)c3C)C2)C1 (stereo not drawn) [Example 17, (3aS*,7aS*)-5-(1-(2-acryloyl-2-azaspiro[3.3]heptan-6-yl)-4-(5-chloro-6-methyl-1H-indazol-4-yl)-5-methyl-1H-pyrazol-3-yl)-2-methyloctahydro-1H-pyrrolo[3,4-c]pyridin-1-one] | 829 |
| C=CC(=O)N1CC2(CC(n3nc(N4CCCCC45CN(C(C)=O)C5)c(-c4c(Cl)c(C)cc5[nH]ncc45)c3C)C2)C1 (single isomer, unassigned) [Example 66a, 1-(6-(3-(2-acetyl-2,5-diazaspiro[3.5]nonan-5-yl)-4-(5-chloro-6-methyl-1H-indazol-4-yl)-5-methyl-1H-pyrazol-1-yl)-2-azaspiro[3.3]heptan-2-yl)prop-2-en-1-one] | > 50000 |
| C=CC(=O)N1CC2(CC(n3nc(N4CCN(C[C@@H]5COCCO5)CC45CCC5)c(-c4c(Cl)c(Cl)cc5[nH]ncc45)c3C)C2)C1 (single isomer, unassigned) [Example 171a] | > 5000 |
| C=CC(=O)N1CC2(CC(n3nc(N4CCN(C[C@H]5CCCO5)CC45CCC5)c(-c4c(Cl)c(C)cc5[nH]ncc45)c3C)C2)C1 (single isomer, unassigned) [Example 153a] | > 5000 |
| C=CC(=O)N1CC2(CC(n3nc(N4CC(=O)N(C)CC45CCC5)c(-c4c(Cl)c(C)cc5[nH]ncc45)c3C)C2)C1 (single isomer, unassigned) [Example 65b, 5-(1-(2-acryloyl-2-azaspiro[3.3]heptan-6-yl)-4-(5-chloro-6-methyl-1H-indazol-4-yl)-5-methyl-1H-pyrazol-3-yl)-8-methyl-5,8-diazaspiro[3.5]nonan-7-one] | 212 |
| C=CC(=O)N1CC2(CC(n3nc(N4CCC(N5CC(OC)C5)CC4(C)C)c(-c4c(Cl)c(Cl)cc5[nH]ncc45)c3C)C2)C1 (single isomer, unassigned) [Example 209a, 1-(6-(4-(5,6-dichloro-1H-indazol-4-yl)-3-(4-(3-methoxyazetidin-1-yl)-2,2-dimethylpiperidin-1-yl)-5-methyl-1H-pyrazol-1-yl)-2-azaspiro[3.3]heptan-2-yl)prop-2-en-1-one] | 1100 |
| C=CC(=O)N1CC2(CC(n3nc(N4CC5(CCOC5)C4)c(-c4c(Cl)c(Cl)cc5[nH]ncc45)c3C)C2)C1 (single isomer, unassigned) [Example 108b, 1-(6-(4-(5,6-dichloro-1H-indazol-4-yl)-5-methyl-3-(6-oxa-2-azaspiro[3.4]octan-2-yl)-1H-pyrazol-1-yl)-2-azaspiro[3.3]heptan-2-yl)prop-2-en-1-one] | 576 |
| C=CC(=O)N1CC2(CC(n3nc(N4CCN(C5COC5)CC4(CC)CC)c(-c4c(Cl)c(C)cc5[nH]ncc45)c3C)C2)C1 (single isomer, unassigned) [Example 152b, 1-(6-(4-(5-chloro-6-methyl-1H-indazol-4-yl)-3-(2,2-diethyl-4-(oxetan-3-yl)piperazin-1-yl)-5-methyl-1H-pyrazol-1-yl)-2-azaspiro[3.3]heptan-2-yl)prop-2-en-1-one] | 45 |
| C=CC(=O)N1CC2(CC(n3nc(N4CCN(C[C@@H]5COCCO5)C[C@]4(C)CC)c(-c4c(Cl)cnc5[nH]ncc45)c3C)C2)C1 (single isomer, unassigned) [Example 81b] | 585 |
| C=CC(=O)N1CC2(CC(n3nc(N4CCc5ncncc5C4)c(-c4c(Cl)c(C)cc5[nH]ncc45)c3C)C2)C1 (single isomer, unassigned) [Example 15b, 1-(6-(4-(5-chloro-6-methyl-1H-indazol-4-yl)-3-(7,8-dihydropyrido[4,3-d]pyrimidin-6(5H)-yl)-5-methyl-1H-pyrazol-1-yl)-2-azaspiro[3.3]heptan-2-yl)prop-2-en-1-one] | 305 |
| C=CC(=O)N1CC2(CC(n3nc(N4CCN(C(C)=O)CC4)c(-c4c(Cl)ccc5[nH]ncc45)c3C)C2)C1C (single isomer, unassigned) [Example 198b, 1-(6-(3-(4-acetylpiperazin-1-yl)-4-(5-chloro-1H-indazol-4-yl)-5-methyl-1H-pyrazol-1-yl)-1-methyl-2-azaspiro[3.3]heptan-2-yl)prop-2-en-1-one] | > 50000 |
| C/C=C/C(=O)N1CC2(CC(n3nc(N4CCN(C5COC5)CC45CCC5)c(-c4c(Cl)c(C)cc5[nH]ncc45)c3C)C2)C1 (single isomer, unassigned) [Example 138b, (E)-1-(6-(4-(5-chloro-6-methyl-1H-indazol-4-yl)-5-methyl-3-(8-(oxetan-3-yl)-5,8-diazaspiro[3.5]nonan-5-yl)-1H-pyrazol-1-yl)-2-azaspiro[3.3]heptan-2-yl)but-2-en-1-one] | 2780 |

Further lines, results first:

| IC50 [nM] | SMILES |
| --- | --- |
| > 5000 | C=CC(=O)N1CC2(CC(n3nc(N4CC[C@@H](CN5CC6(CCN(S(C)(=O)=O)C6)C5)CC4(C)C)c(-c4c(Cl)c(Cl)cc5[nH]ncc45)c3C)C2)C1 (single isomer, unassigned) [Example 297a] |
| 1900 | C=CC(=O)N1CC2(CC(n3nc(N4CC[C@@H](CN5CCOC[C@@H](O)C5)CC4(C)C)c(-c4c(Cl)c(Cl)cc5[nH]ncc45)c3C)C2)C1 (single isomer, unassigned) [Example 292a] |
| 290 | C=CC(=O)N1CC2(CC(n3nc(N4CC[C@H](CN5CCOCC5)CC4(C)C)c(-c4c(Cl)c(Cl)cc5[nH]ncc45)c3C)C2)C1 (single isomer, unassigned) [Example 214a] |
| 8 | C=CC(=O)N1CC2(CC(n3nc(N4CCC(CN5C[C@@H]6C[C@H]5CO6)CC4(C)C)c(-c4c(Cl)c(Cl)cc5[nH]ncc45)c3C)C2)C1 (single isomer, unassigned) [Example 217b] |
| 7 | C=CC(=O)N1CC2(CC(n3nc(N4CC[C@@H](CN5CCN6C(=O)COC[C@@H]6C5)CC4(C)C)c(-c4c(Cl)c(Cl)cc5[nH]ncc45)c3C)C2)C1 (single isomer, unassigned) [Example 275b] |
| 2600 | C=CC(=O)N1CC2(CC(n3nc(N4CC[C@@H](CN5CC6(CCS(=O)(=O)C6)C5)CC4(C)C)c(-c4c(Cl)c(Cl)cc5[nH]ncc45)c3C)C2)C1 (single isomer, unassigned) [Example 254a] |
| 789 | C=CC(=O)N1CC2(CC(n3nc(N4CC[C@@H](CN5CC6(CCN(C(C)=O)C6)C5)CC4(C)C)c(-c4c(Cl)c(Cl)cc5[nH]ncc45)c3C)C2)C1 (single isomer, unassigned) [Example 268a] |
| 2000 | C=CC(=O)N1CC2(CC(n3nc(N4CC[C@@H](CN5C[C@@H]6CN(C(C)=O)C[C@@H]6C5)CC4(C)C)c(-c4c(Cl)c(Cl)cc5[nH]ncc45)c3C)C2)C1 (single isomer, unassigned) [Example 295a] |
| 3400 | C=CC(=O)N1CC2(CC(n3nc(N4CC[C@@H](CN5CCN(C6COC6)C[C@@H]5CO)CC4(C)C)c(-c4c(Cl)c(Cl)cc5[nH]ncc45)c3C)C2)C1 (single isomer, unassigned) [Example 290a] |
